{"source": "patent EP2502493B1", "about": "“Novel alpha-galactosidases” (Velico Medical, Inc., priority 2005, dated 2007)", "origin": "cited, not measured here", "test_system": "α-galactosidase from the marine bacterium Pseudoalteromonas spp. (KMM 701)", "conditions": "isolated enzyme preparation, purified to 9.8U/mg; monosaccharide substrate pNP-Gal; read-out: apparent Km for pNP-Gal", "data": [{"smiles": "O=[N+]([O-])c1ccc(O[C@H]2O[C@H](CO)[C@H](O)[C@H](O)[C@H]2O)cc1", "note": "[pNP-Gal, p-nitrophenyl α-D-Gal]", "values": [{"measurement": "Km", "value": 290, "unit": "µM"}]}]}
